The results in this text go back to patent USRE50082E1, “(5,6-dihydro)pyrimido[4,5-e]indolizines” (NETHERLANDS TRANSLATIONAL RESEARCH CENTER B.V., priority 2014, dated 2024).

The target of one test is T1, Aurora A (Homo sapiens, UniProt O14965).
T1 construct: full-length Aurora A enzyme (Carna Biosciences, cat. no. 05-101); purchased Carna Biosciences 05-101
T1 sequence (O14965 1-403): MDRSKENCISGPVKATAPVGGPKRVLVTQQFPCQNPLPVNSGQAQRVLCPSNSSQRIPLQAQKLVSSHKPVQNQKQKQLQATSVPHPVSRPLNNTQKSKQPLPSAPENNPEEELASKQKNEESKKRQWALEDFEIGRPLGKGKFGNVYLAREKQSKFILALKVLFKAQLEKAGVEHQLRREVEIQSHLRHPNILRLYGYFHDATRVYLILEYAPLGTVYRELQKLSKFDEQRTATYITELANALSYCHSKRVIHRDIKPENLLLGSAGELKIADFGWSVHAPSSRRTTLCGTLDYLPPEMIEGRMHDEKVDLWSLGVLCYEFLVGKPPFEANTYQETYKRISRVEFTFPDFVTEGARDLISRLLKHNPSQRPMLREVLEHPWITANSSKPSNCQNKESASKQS
Nature of the test: Biochemical Aurora A kinase assay (LANCE Ultra TR-FRET). Conditions: for AurA Selectivity: IC50 AurA/IC50 TTK (biochemical assays); for IC50: full-length Aurora A, 2 μM ATP. For orientation: In TR-FRET formats the signal depends on donor and acceptor labels being close together.

Another test addresses T2, Aurora C (Homo sapiens, UniProt Q9UQB9).
T2 construct: full-length Aurora C enzyme (Carna Biosciences, cat. no. 05-103); purchased Carna Biosciences 05-103
T2 sequence (Q9UQB9 1-309): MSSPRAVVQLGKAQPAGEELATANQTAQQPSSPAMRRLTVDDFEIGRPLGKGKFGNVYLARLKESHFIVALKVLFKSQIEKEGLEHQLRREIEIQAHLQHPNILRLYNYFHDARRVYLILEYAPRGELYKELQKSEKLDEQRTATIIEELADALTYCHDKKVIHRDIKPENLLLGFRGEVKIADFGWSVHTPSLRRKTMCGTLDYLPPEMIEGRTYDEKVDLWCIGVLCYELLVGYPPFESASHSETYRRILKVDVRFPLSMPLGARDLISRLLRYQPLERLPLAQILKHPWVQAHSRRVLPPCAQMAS
Nature of the test: Biochemical Aurora C kinase assay (LANCE Ultra TR-FRET). Particulars: for AurC Selectivity: IC50 AurC/IC50 TTK (biochemical assays); for IC50: full-length Aurora C, 5 μM ATP.

Test [1] addresses Polo-like kinase 1 (PLK1) (Homo sapiens, UniProt P53350). Briefly: Biochemical Polo-like kinase 1 kinase assay (LANCE Ultra TR-FRET). Conditions: for PLK1 Selectivity: IC50 PLK1/IC50 TTK (biochemical assays).
Experimental: To determine the inhibitory activity of the compounds on Polo-like kinase 1 (PLK1), the LANCE® Ultra TR-FRET assay (Perkin Elmer) was used. […] After 4 hours, the reaction was stopped by the addition of 5 μl 100 mM EDTA. […] Time-resolved fluorescence was measured on an Envision multilabel reader (Perkin Elmer, Waltham, Mass. USA). IC50 were calculated using XLfit™5 software (ID Business Solutions, Ltd., Surrey, U.K.).
The subject of another test is MOLT-4 cancer cell line. Briefly: Cell proliferation assay, MOLT-4 cancer cell line (ATPlite).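 Also: luminescence read-out, percent growth versus compound-free DMSO wells as maximum growth, start-of-incubation signal separating growth from cell death, IC50 from logistic curve fit.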 Particulars: Homo sapiens. It is filed as cell-based. (In general: Cellular ATP, detected with luciferase, serves as a proxy for viable cell number.)
Setting [2] is: MOLT-4, worded 'TTK cellular assay', read-out: IC50 in the TTK cellular assay.
Setting [3] is: MOLT-4, 72 hours incubation, ATPlite 1Step, read-out: IC50 MOLT-4 cell proliferation.

Read-outs that look alike come from different tables or passages of the source.

Sequence of Polo-like kinase 1 (PLK1) (P53350 whole entry): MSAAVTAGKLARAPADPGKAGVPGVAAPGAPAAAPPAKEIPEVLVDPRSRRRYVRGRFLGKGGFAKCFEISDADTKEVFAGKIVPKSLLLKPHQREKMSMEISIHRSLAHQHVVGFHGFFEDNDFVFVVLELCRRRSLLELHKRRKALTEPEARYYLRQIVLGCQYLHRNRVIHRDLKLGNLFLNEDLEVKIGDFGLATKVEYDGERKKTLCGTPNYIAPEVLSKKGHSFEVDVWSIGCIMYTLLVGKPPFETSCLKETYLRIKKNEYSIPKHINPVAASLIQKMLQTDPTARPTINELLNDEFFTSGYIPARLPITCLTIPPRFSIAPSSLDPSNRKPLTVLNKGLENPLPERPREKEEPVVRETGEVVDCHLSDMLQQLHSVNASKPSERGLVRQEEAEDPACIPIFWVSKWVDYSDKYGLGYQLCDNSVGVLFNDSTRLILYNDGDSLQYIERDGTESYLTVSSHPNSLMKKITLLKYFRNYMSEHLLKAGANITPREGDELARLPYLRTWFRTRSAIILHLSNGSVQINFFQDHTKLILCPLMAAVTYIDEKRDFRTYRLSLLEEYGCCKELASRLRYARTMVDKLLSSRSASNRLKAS
Experimental for Aurora A: To determine the inhibitory activity of the compounds on Aurora A, the LANCE® Ultra TR-FRET assay (Perkin Elmer) was used. […] After 2 hours, the reaction was stopped by the addition of 5 μl 100 mM EDTA. […] Time-resolved fluorescence was measured on an Envision multilabel reader (Perkin Elmer, Waltham, Mass., USA). IC50 were calculated using XLfit™5 software (ID Business Solutions, Ltd., Surrey, U.K.).
Experimental for Aurora C: To determine the inhibitory activity of the compounds on Aurora C, the LANCE® Ultra TR-FRET assay (Perkin Elmer) was used. […] After pre-incubation of 1 hour in the dark at room temperature, ULightTM-labeled PLK([MUT]) substrate peptide (Perkin Elmer, cat. no. TRF-0110) and ATP were added, to start the reaction. […] After 3 hours, the reaction was stopped by the addition of 5 μl 100 mM EDTA. […] Time-resolved fluorescence was measured on an Envision multilabel reader (Perkin Elmer, Waltham, Mass., USA). IC50 were calculated using XLfitTM5 software (ID Business Solutions, Ltd., Surrey, U.K.).

For the compound `CCNCC(=O)N1CCN(c2ccc(Nc3ncc4c(n3)-n3ccc(C(=O)Nc5c(C)nn(CCOCCOCCOC)c5C)c3CC4)c(OC)c2)CC1` [Example 157, 2-[4-[4-[2-(Ethylamino)acetyl]piperazin-1-yl]-2-methoxy-anilino]-N-[1-[2-[2-(2-methoxyethoxy)ethoxy]ethyl]-3,5-dimethyl-pyrazol-4-yl]-5,6-dihydropyrimido[4,5-e]indolizine-7-carboxamide], the “AurA Selectivity” value at Aurora A is above 200. Also, the IC50 was at least 100 nM against Aurora A, at least 100 nM at Aurora C, at least 250 nM in test [1] and below 50 nM in the test with MOLT-4 cancer cell line (setting [2]). Besides, the “AurC Selectivity” value on Aurora C is above 500. In test [1], the “PLK1 Selectivity” value is on record as above 500.
`COCCn1nc(C)c(NC(=O)c2ccn3c2CCc2cnc(Nc4ccc(N5CCN(C(=O)C6CN(C)C6)CC5)cc4OC)nc2-3)c1C` [Example 155, N-[1-(2-methoxyethyl)-3,5-dimethyl-pyrazol-4-yl]-2-[2-methoxy-4-[4-(1-methylazetidine-3-carbonyl)piperazin-1-yl]anilino]-5,6-dihydropyrimido[4,5-e]indolizine-7-carboxamide]: the “AurA Selectivity” value at Aurora A is given as above 200. For the same compound, the IC50 is at least 100 nM on Aurora A, at least 100 nM against Aurora C, at least 250 nM in test [1] and below 50 nM with MOLT-4 cancer cell line (setting [2]). The “AurC Selectivity” value at Aurora C was above 500. The “PLK1 Selectivity” value in test [1] is listed as above 500.
For `CCOCCOCCn1nc(C)c(NC(=O)c2ccn3c2CCc2cnc(Nc4ccc(N5CCN(C)CC5)cc4OC)nc2-3)c1C` [Example 148, N-[1-[2-(2-ethoxyethoxy)ethyl]-3,5-dimethyl-pyrazol-4-yl]-2-[2-methoxy-4-(4-methylpiperazin-1-yl)anilino]-5,6-dihydropyrimido[4,5-e]indolizine-7-carboxamide], the IC50 on Aurora A is at least 100 nM; against Aurora C it was at least 100 nM; in test [1], at least 250 nM; with MOLT-4 cancer cell line (MOLT-4, read-out: IC50 in the TTK cellular assay) it was below 50 nM.
With `COCCOCCOCCn1nc(C)c(NC(=O)c2ccn3c2CCc2cnc(Nc4ccc(N5CCN(C)CC5)cc4OC)nc2-3)c1C` [Example 138, N-[1-[2-[2-(2-methoxyethoxy)ethoxy]ethyl]-3,5-dimethyl-pyrrazol-4-yl]-2-[2-methoxy-4-(4-methylpiperazin-1-yl)anilino]-5,6-dihydropyrimido[4,5-e]indolizine-7-carboxamide], on Aurora A, the “AurA Selectivity” value was above 500 and the IC50 is at least 100 nM. For the same compound, at Aurora C, the “AurC Selectivity” value is above 500 and the IC50 was at least 100 nM. For the same compound, in test [1], the IC50 was at least 250 nM and the “PLK1 Selectivity” value was above 500. In the test on MOLT-4 cancer cell line (setting [3]), the IC50 is below 50 nM.
In the case of `COCCOCCn1nc(C)c(NC(=O)c2ccn3c2CCc2cnc(Nc4ccc(N5CCN(C)CC5)cc4OC)nc2-3)c1C` [Example 149, N-[1-[2-(2-methoxyethoxy)ethyl]-3,5-dimethyl-pyrazol-4-yl]-2-[2-methoxy-4-(4-methylpiperazin-1-yl)anilino]-b,6-dihydropyrimido[4,5-e]indolizine-7-carboxamide], the “AurA Selectivity” value at Aurora A is on record as above 200. The IC50 on Aurora A is at least 100 nM; against Aurora C, at least 100 nM; in test [1], at least 250 nM; with MOLT-4 cancer cell line (setting [2]), below 50 nM. Moreover, the “AurC Selectivity” value on Aurora C is on record as above 500. In test [1], the “PLK1 Selectivity” value is above 500.
As for `CCc1n[nH]c(CC)c1NC(=O)c1ccn2c1CCc1cnc(Nc3ccc(N4CCN(C)CC4)cc3C)nc1-2` [Example 9, N-(3,5-diethyl-1H-pyrazol-4-yl)-2-[2-methyl-4-(4-methylpiperazin-1-yl)anilino]-5,6-dihydropyrimido[4,5-e]indolizine-7-carboxamide], the IC50 with MOLT-4 cancer cell line (setting [3]) is below 50 nM.
Still for that read-out and setting: then `[2H]C([2H])([2H])Oc1cc(N2CCN(C)CC2)ccc1Nc1ncc2c(n1)-n1ccc(C(=O)Nc3c(CC)cccc3CC)c1CC2` [Example 99, N-(2,6-diethylphenyl)-2-[4-(4-methylpiperazin-1-yl)-2-(trideuteriomethoxy)anilino]-5,6-dihydropyrimido[4,5-e]indolizine-7-carboxamide], with below 50 nM; and `COc1cc(N2CCN(C)CC2)ccc1Nc1ncc2c(n1)-n1ccc(C(=O)Nc3c(C)ccnc3Cl)c1CC2` [Example 25, N-(2-chloro-4-methyl-3-pyridyl)-2-[2-methoxy-4-(4-methylpiperazin-1-yl)anilino]-5,6-dihydropyrimido[4,5-e]indolizine-7-carboxamide], with 50 to 150 nM.
On the same count and under the same terms, in the case of `COc1cc(C(=O)NCC(C)(C)O)ccc1Nc1ncc2c(n1)-n1ccc(C(=O)Nc3c(C)cccc3C)c1CC2` [Example 1, N-(2,6-dimethylphenyl)-2-[4-[(2-hydroxy-2-methyl-propyl)carbamoyl]-2-methoxy-anilino]-5,6-dihydropyrimido[4,5-e]indolizine-7-carboxamide] it was below 50 nM; in that of `CCc1cccc(CC)c1NC(=O)c1ccn2c1CCc1cnc(Nc3ccc(N4CCNCC4)cc3OC)nc1-2` [Example 76, N-(2,6-diethylphenyl)-2-(2-methoxy-4-piperazin-1-yl-anilino)-5,6-dihydropyrimido[4,5-e]indolizine-7-carboxamide], below 50 nM.
Same read-out and setting: in the case of `Cc1cccc(C)c1NC(=O)c1ccn2c1CCc1cnc(Nc3ccc(C(=O)NC4CCN(C)CC4)cc3OC(F)F)nc1-2` [Example 37, 2-[2-(Difluoromethoxy)-4-[(1-methyl-4-piperidyl)carbamoyl]anilino]-N-(2,6-dimethylphenyl)-5,6-dihydropyrimido[4,5-e]indolizine-7-carboxamide] it was below 50 nM.
With `CCc1cccc(C)c1NC(=O)c1ccn2c1CCc1cnc(Nc3ccc(OC4CCN(C)CC4)cc3OC)nc1-2` [Example 40, N-(2-ethyl-6-methyl-phenyl)-2-[2-methoxy-4-[(1-methyl-4-piperidyl)oxy]anilino]-5,6-dihydropyrimido[4,5-e]indolizine-7-carboxamide], the IC50 in the test on MOLT-4 cancer cell line (setting [3]) is below 50 nM.
The same measure, in the same setting: then `CCc1n[nH]c(CC)c1NC(=O)c1ccn2c1CCc1cnc(Nc3ccc(OC4CNC4)cc3OC)nc1-2` [Example 92, 2-[4-(Azetidin-3-yloxy)-2-methoxy-anilino]-N-(3,5-diethyl-pyrazol-4-yl)-5,6-dihydropyrimido[4,5-e]indolizine-7-carboxamide], with 50 to 150 nM; and `COc1cc(N2CCN(C)CC2)ccc1Nc1ncc2c(n1)-n1ccc(C(=O)Nc3c(C)cccc3CO)c1CC2` [Example 23, N-[2-(hydroxymethyl)-6-methyl-phenyl]-2-[2-methoxy-4-(4-methylpiperazin-1-yl)anilino]-5,6-dihydropyrimido[4,5-e]indolizine-7-carboxamide], with 50 to 150 nM; and `CCc1n[nH]c(CC)c1NC(=O)c1ccn2c1CCc1cnc(Nc3ccc(OCCN(C)C)cc3OC)nc1-2` [Example 53, N-(3,5-diethyl-1H-pyrazol-4-yl)-2-[4-(2-dimethylaminoethyloxy)-2-methoxy-anilino]-5,6-dihydropyrimido[4,5-e]indolizine-7-carboxamide], with 50 to 150 nM.
On the same count and under the same terms, then `CCc1cccc(CC)c1NC(=O)c1ccn2c1CCc1cnc(Nc3ccc(OCCN(C)C)cc3OC)nc1-2` [Example 52, N-(2,6-diethylphenyl)-2-[4-(2-dimethylaminoethyloxy)-2-methoxy-anilino]-5,6-dihydropyrimido[4,5-e]indolizine-7-carboxamide], with 50 to 150 nM; and `Cc1cccc(Cl)c1NC(=O)c1ccn2c1CCc1cnc(Nc3ccc(N4CCOCC4)nc3C)nc1-2` [Example 5, N-(2-chloro-6-methyl-phenyl)-2-[(2-methyl-6-morpholino-3-pyridyl)amino]-5,6-dihydropyrimido[4,5-e]indolizine-7-carboxamide], with below 50 nM; and `COc1cc(OC2CCN(C)CC2)ccc1Nc1ncc2c(n1)-n1ccc(C(=O)Nc3c(C)cccc3Cl)c1CC2` [Example 41, N-(2-chloro-6-methyl-phenyl)-2-[2-methoxy-4-[(1-methyl-4-piperidyl)oxy]anilino]-5,6-dihydropyrimido[4,5-e]indolizine-7-carboxamide], with below 50 nM.
The same measure, in the same setting: then `Cc1cc(N2CCN(C)CC2)ccc1Nc1ncc2c(n1)-n1ccc(C(=O)Nc3c(C)cccc3Br)c1CC2` [Example 65, N-(2-bromo-6-methyl-phenyl)-2-[2-methyl-4-(4-methylpiperazin-1-yl)anilino]-5,6-dihydropyrimido[4,5-e]indolizine-7-carboxamide], with below 50 nM.
